According to the NIST ThermoML archive (doi:10.1016/j.jct.2013.12.021):
Numbers after ± are expanded uncertainties.

Experiment: Boiling temperature at pressure P
Conditions: 101.33 kPa; Liquid; Ebulliometric method (Recirculating still)

Boiling temperature at pressure P: 64.50 ± 0.1 °C
SMILES: CO [methanol]
